From patent US20230085307A1, “PYRIDAZINONE COMPOUND AND HERBICIDE” (NISSAN CHEMICAL CORPORATION, priority 2019, published 2023)

Assays:
windgrass [1] = assay: Test Example 4: herbicidal effect by soil treatment (Table 19, symbol L); assay type: in vivo, windgrass (Apera spica-venti); details: AAH 320 g/ha
Excerpt: (§1) [Test Example 4] Herbicidal Effect Test by Soil Treatment
(§2) Sterilized diluvial soil was placed in a plastic box having a length of 21 cm, a width of 13 cm, and a depth of 7 cm. The seeds of each of southern crabgrass, green foxtail, barnyard grass, wild oat, blackgrass, Italian ryegrass, windgrass, velvetleaf, redroot pigweed, lambsquarters, chickweed, false cleavers, persian speedwell, corn, soybean, rice, wheat, beet, and rapeseed were sowed in a spot-like manner and covered with the soil having a thickness of about 1.5 cm. Subsequently, the emulsion agent of the compound of the present invention prepared according to Formulation Example 2 was diluted with water so as to achieve a predetermined herbicide amount, and the diluted emulsion agent was uniformly applied to the surface of the soil with a small-sized spray. The plastic box was placed in a greenhouse at 25° C. to 30° C. for growth of the plants. Three weeks after the herbicide application, the effect of the herbicide on each plant was evaluated according to the criteria of Test Example 1.

southern crabgrass [2] = assay: Test Example 4: herbicidal effect by soil treatment (Table 19, symbol F); assay type: in vivo, southern crabgrass (Digitaria ciliaris); details: AAH 320 g/ha
How it was run: (§3)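 Scoring uses the grading scale of an earlier test, three weeks post-application. Treatment consists of spraying a diluted emulsion formulation across the surface of sterilized diluvial soil in which seeds are buried near 1.5 cm deep; boxes are kept in a greenhouse between 25° C. and 30° C.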

wild oat [3] = assay: Test Example 4: herbicidal effect by soil treatment (Table 19, symbol I); assay type: in vivo, wild oat (Avena fatua)
Excerpt: as §1, §2

velvetleaf [4] = assay: Test Example 4: herbicidal effect by soil treatment (Table 19, symbol M); assay type: in vivo, velvetleaf (Abutilon theophrasti); details: AAH 320 g/ha
How it was run: as §3

barnyard grass [5] = assay: Test Example 3: herbicidal effect by foliage application, Wagner pot (Table 18, symbol H); assay type: in vivo, barnyard grass (Echinochloa crus-galli); details: 320 g/ha
How it was run: (§4)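 Plants were sown in alluvial soil held under 0.1–0.5 cm standing water and grown 14 days in a greenhouse at 25–30 °C. An emulsifiable formulation, water-diluted to the set dose, was then sprayed onto the foliage, and effects were scored three weeks later using previously defined criteria.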

green foxtail [6] = assay: Test Example 5: herbicidal effect by foliage application, plastic box (Table 20, symbol G); assay type: in vivo, green foxtail (Setaria viridis); details: foliage application, 320 g/ha
How it was run: (§5)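 Post-emergence foliar test in sterilized diluvial soil. Compound applied as water-diluted emulsion at a predetermined rate to 14-day-old plants; evaluation at three weeks.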

blackgrass [7] = assay: Test Example 4: herbicidal effect by soil treatment (Table 19, symbol J); assay type: in vivo, blackgrass (Alopecurus myosuroides); details: AAH 320 g/ha
Excerpt: as §1, §2

southern crabgrass [8] = assay: Test Example 5: herbicidal effect by foliage application, plastic box (Table 20, symbol F); assay type: in vivo, southern crabgrass (Digitaria ciliaris); details: foliage application, 320 g/ha
How it was run: as §5

chickweed [9] = assay: Test Example 4: herbicidal effect by soil treatment (Table 19, symbol P); assay type: in vivo, common chickweed (Stellaria media); details: AAH 320 g/ha
Excerpt: as §1, §2

Italian ryegrass [10] = assay: Test Example 5: herbicidal effect by foliage application, plastic box (Table 20, symbol K); assay type: in vivo, Italian ryegrass (Lolium multiflorum); details: foliage application, 320 g/ha
How it was run: as §5

velvetleaf [11] = assay: Test Example 5: herbicidal effect by foliage application, plastic box (Table 20, symbol M); assay type: in vivo, velvetleaf (Abutilon theophrasti); details: foliage application, 320 g/ha
How it was run: as §5

lambsquarters [12] = assay: Test Example 4: herbicidal effect by soil treatment (Table 19, symbol O); assay type: in vivo, lambsquarters (Chenopodium album); details: AAH 320 g/ha
Excerpt: as §1, §2

Chinese sprangletop = assay: Test Example 3: herbicidal effect by foliage application, Wagner pot (Table 18, symbol D); assay type: in vivo, chinese sprangletop (Leptochloa chinensis); details: 320 g/ha
How it was run: as §4

Italian ryegrass [13] = assay: Test Example 4: herbicidal effect by soil treatment (Table 19, symbol K); assay type: in vivo, Italian ryegrass (Lolium multiflorum)
Excerpt: as §1, §2

wild oat [14] = assay: Test Example 5: herbicidal effect by foliage application, plastic box (Table 20, symbol I); assay type: in vivo, wild oat (Avena fatua); details: foliage application, 320 g/ha
How it was run: as §5

windgrass [15] = assay: Test Example 5: herbicidal effect by foliage application, plastic box (Table 20, symbol L); assay type: in vivo, windgrass (Apera spica-venti); details: foliage application, 320 g/ha
How it was run: as §5

blackgrass [16] = assay: Test Example 5: herbicidal effect by foliage application, plastic box (Table 20, symbol J); assay type: in vivo, blackgrass (Alopecurus myosuroides); details: foliage application, 320 g/ha
How it was run: as §5

persian speedwell = assay: Test Example 5: herbicidal effect by foliage application, plastic box (Table 20, symbol R); assay type: in vivo, Persian speedwell (Veronica persica); details: foliage application, 320 g/ha
How it was run: as §5

redroot pigweed [17] = assay: Test Example 4: herbicidal effect by soil treatment (Table 19, symbol N); assay type: in vivo, redroot pigweed (Amaranthus retroflexus)
Excerpt: as §1, §2

barnyard grass [18] = assay: Test Example 4: herbicidal effect by soil treatment (Table 19, symbol H); assay type: in vivo, barnyard grass (Echinochloa crus-galli); details: AAH 320 g/ha
Excerpt: as §1, §2

barnyard grass [19] = assay: Test Example 5: herbicidal effect by foliage application, plastic box (Table 20, symbol H); assay type: in vivo, barnyard grass (Echinochloa crus-galli); details: foliage application, 320 g/ha
How it was run: as §5

lambsquarters [20] = assay: Test Example 5: herbicidal effect by foliage application, plastic box (Table 20, symbol O); assay type: in vivo, lambsquarters (Chenopodium album); details: foliage application, 320 g/ha
How it was run: as §5

green foxtail [21] = assay: Test Example 4: herbicidal effect by soil treatment (Table 19, symbol G); assay type: in vivo, green foxtail (Setaria viridis); details: AAH 320 g/ha
How it was run: as §3

rice flat sedge = assay: Test Example 3: herbicidal effect by foliage application, Wagner pot (Table 18, symbol E); assay type: in vivo, rice flat sedge (Cyperus iria); details: 320 g/ha
How it was run: as §4

chickweed [22] = assay: Test Example 5: herbicidal effect by foliage application, plastic box (Table 20, symbol P); assay type: in vivo, common chickweed (Stellaria media); details: foliage application, 320 g/ha, three weeks after application
How it was run: as §5

redroot pigweed [23] = assay: Test Example 5: herbicidal effect by foliage application, plastic box (Table 20, symbol N); assay type: in vivo, redroot pigweed (Amaranthus retroflexus); details: foliage application, 320 g/ha, three weeks after application
How it was run: as §5

[24] = amount of applied herbicide 320 g/ha

Structure (SMILES): Cc1nn(C)c(=O)c(-c2c(-c3ccc(CSC(C)C)cc3)sc3ccccc23)c1O [1-243]
- L: windgrass, herbicidal effect rating (windgrass [1]): 0 (Herbicidal rate of 5% or less (almost no effect))
- F: southern crabgrass, herbicidal effect rating (southern crabgrass [2]): 0 (Herbicidal rate of 5% or less (almost no effect))
- I: wild oat, herbicidal effect rating (wild oat [3]; AAH 320 g/ha): 0 (Herbicidal rate of 5% or less (almost no effect))
- M: velvetleaf, herbicidal effect rating (velvetleaf [4]): 1 (Herbicidal rate of 5% or more and less than 20%)
- herbicidal effect on H (barnyard grass), rating 0-5 (barnyard grass [5]): 5 (Herbicidal rate of 90% or more (almost completely withered))
- effect on green foxtail (G) (green foxtail [6]; 3 weeks after application): 4 (Herbicidal rate of 70% or more and less than 90%)
- J: blackgrass, herbicidal effect rating (blackgrass [7]): 0 (Herbicidal rate of 5% or less (almost no effect))
- effect on southern crabgrass (F) (southern crabgrass [8]; 3 weeks after application): 3 (Herbicidal rate of 40% or more and less than 70%)
- P: chickweed, herbicidal effect rating (chickweed [9]): 0 (Herbicidal rate of 5% or less (almost no effect))
- effect on Italian ryegrass (K) (Italian ryegrass [10]; 3 weeks after application): 3 (Herbicidal rate of 40% or more and less than 70%)
- effect on velvetleaf (M) (velvetleaf [11]; 3 weeks after application): 5 (Herbicidal rate of 90% or more (almost completely withered))
- O: lambsquarters, herbicidal effect rating (lambsquarters [12]): 3 (Herbicidal rate of 40% or more and less than 70%)
- herbicidal effect on D (Chinese sprangletop), rating 0-5 (Chinese sprangletop): 4 (Herbicidal rate of 70% or more and less than 90%)
- K: Italian ryegrass, herbicidal effect rating (Italian ryegrass [13]; AAH 320 g/ha): 0 (Herbicidal rate of 5% or less (almost no effect))
- effect on wild oat (I) (wild oat [14]; 3 weeks after application): 2 (Herbicidal rate of 20% or more and less than 40%)
- effect on windgrass (L) (windgrass [15]; 3 weeks after application): 0 (Herbicidal rate of 5% or less (almost no effect))
- effect on blackgrass (J) (blackgrass [16]; 3 weeks after application): 2 (Herbicidal rate of 20% or more and less than 40%)
- effect on persian speedwell (R) (persian speedwell; 3 weeks after application): 5 (Herbicidal rate of 90% or more (almost completely withered))
- N: redroot pigweed, herbicidal effect rating (redroot pigweed [17]; AAH 320 g/ha): 4 (Herbicidal rate of 70% or more and less than 90%)
- H: barnyard grass, herbicidal effect rating (barnyard grass [18]): 0 (Herbicidal rate of 5% or less (almost no effect))
- effect on barnyard grass (H) (barnyard grass [19]; 3 weeks after application): 4 (Herbicidal rate of 70% or more and less than 90%)
- effect on lambsquarters (O) (lambsquarters [20]; 3 weeks after application): 4 (Herbicidal rate of 70% or more and less than 90%)
- G: green foxtail, herbicidal effect rating (green foxtail [21]): 0 (Herbicidal rate of 5% or less (almost no effect))
- herbicidal effect on E (rice flat sedge), rating 0-5 (rice flat sedge): 4 (Herbicidal rate of 70% or more and less than 90%)

Structure (SMILES): Cc1nn(C)c(=O)c(-c2c(-c3ccc(OC(F)(F)F)cc3)sc3ccccc23)c1O [1-031]
- herbicidal effect rating, I: wild oat (wild oat [3]; [24]): 0 (Herbicidal rate of 5% or less (almost no effect))
- herbicidal effect on H (barnyard grass), rating 0-5 (barnyard grass [5]): 4 (Herbicidal rate of 70% or more and less than 90%)
- herbicidal effect grade, G: green foxtail (green foxtail [6]; three weeks after application): 4 (Herbicidal rate of 70% or more and less than 90%)
- herbicidal effect grade, F: southern crabgrass (southern crabgrass [8]; three weeks after application): 0 (Herbicidal rate of 5% or less (almost no effect))
- herbicidal effect grade, K: Italian ryegrass (Italian ryegrass [10]; three weeks after application): 5 (Herbicidal rate of 90% or more (almost completely withered))
- herbicidal effect grade, M: velvetleaf (velvetleaf [11]; three weeks after application): 5 (Herbicidal rate of 90% or more (almost completely withered))
- herbicidal effect on D (Chinese sprangletop), rating 0-5 (Chinese sprangletop): 0 (Herbicidal rate of 5% or less (almost no effect))
- herbicidal effect rating, K: Italian ryegrass (Italian ryegrass [13]; [24]): 3 (Herbicidal rate of 40% or more and less than 70%)
- herbicidal effect grade, I: wild oat (wild oat [14]; three weeks after application): 0 (Herbicidal rate of 5% or less (almost no effect))
- herbicidal effect grade, L: windgrass (windgrass [15]; three weeks after application): 0 (Herbicidal rate of 5% or less (almost no effect))
- herbicidal effect grade, J: blackgrass (blackgrass [16]; three weeks after application): 3 (Herbicidal rate of 40% or more and less than 70%)
- herbicidal effect grade, P: chickweed (chickweed [22]): 5 (Herbicidal rate of 90% or more (almost completely withered))
- herbicidal effect grade, R: persian speedwell (persian speedwell; three weeks after application): 5 (Herbicidal rate of 90% or more (almost completely withered))
- herbicidal effect rating, N: redroot pigweed (redroot pigweed [17]; [24]): 4 (Herbicidal rate of 70% or more and less than 90%)
- herbicidal effect grade, H: barnyard grass (barnyard grass [19]; three weeks after application): 3 (Herbicidal rate of 40% or more and less than 70%)
- herbicidal effect grade, N: redroot pigweed (redroot pigweed [23]): 5 (Herbicidal rate of 90% or more (almost completely withered))
- herbicidal effect grade, O: lambsquarters (lambsquarters [20]; three weeks after application): 5 (Herbicidal rate of 90% or more (almost completely withered))
- herbicidal effect on E (rice flat sedge), rating 0-5 (rice flat sedge): 5 (Herbicidal rate of 90% or more (almost completely withered))
